Active and inactive are the calls of the source.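 Rule for the calls: active = lipid-stain IC50 at or below a set limit, with nuclear-stain toxicity IC50 at least five times higher; inactive = the rest.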
How the values were obtained:
DAPI = assay: TAG lipid buildup inhibition with viability readout – cell-based, panel, Nile Red and DAPI fluorescence, H9c2, dose response (AID 651630); conditions: H9c2 cells, DAPI nuclear fluorescence (cytotoxicity counter-readout), oleic acid;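 note: cells exposed to compound overnight before fixation and staining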
TAG = assay: as above; conditions: H9c2 cells, Nile Red TAG fluorescence, oleic acid

| SMILES | IC50 cytotoxicity (DAPI nuclear signal decrease) (DAPI; mean of runs) | IC50 cytotoxicity (DAPI nuclear signal decrease) (DAPI; run 1) [µM] | IC50 cytotoxicity (DAPI nuclear signal decrease) (DAPI; run 2) [µM] | IC50 (TAG; mean of runs) | IC50 (TAG; run 1) [µM] | IC50 (TAG; run 2) [µM] |
| --- | --- | --- | --- | --- | --- | --- |
| N#C/C(=C\Nc1ccc2cn[nH]c2c1)c1nc(-c2ccc(Cl)cc2)cs1 | 17.8 µM (inactive) | 23.7 | 12 | 11.1 µM | 8.39 | 13.8 |
| O=C(NCC(c1ccc(F)cc1)N1CCOCC1)c1ccc([N+](=O)[O-])o1 (stereo not given) | 19.7 µM (inactive) | 19.7 | 19.6 | > 25 µM (inactive) | > 25 | > 25 |
| CCc1ccc(/C=N/NC(=O)c2cc(C3CC3)nc3ccc(Br)cc23)s1 | > 25 µM (inactive) | > 25 | > 25 | > 25 µM (inactive) | > 25 | > 25 |
| CCOc1ccc(CCNC(=O)c2cc3sc(Cl)cc3n2C)cc1OCC | > 25 µM (inactive) | > 25 | > 25 | 5.75 µM | 7.67 | 3.82 |
| CCC(C)NCCOCCOc1ccc(Cl)c2ccccc12 (stereo not given) | > 25 µM (inactive) | > 25 | > 25 | – | > 25 | 17.7 |
| CNC(=S)NN=C(C)CCCC(C)=NNC(=S)NC | – | 11.3 | > 25 | > 25 µM (inactive) | > 25 | > 25 |
| COc1cccc(C2c3cc4c(cc3OC(NNC(N)=O)C2C)OCO4)c1O (stereo not given) | > 25 µM (inactive) | > 25 | > 25 | > 25 µM (inactive) | > 25 | > 25 |
| CCOC(=O)c1cc(-c2ccccc2)sc1NC(=O)C(C)N1C(=O)NC(C)(c2ccc(Cl)cc2)C1=O (stereo not given) | > 25 µM (inactive) | > 25 | > 25 | 5.58 µM | 5.07 | 6.09 |
| COc1ccc2sc(-c3ccc(N(C)C)cc3)c(C#CCCO)c2c1 | > 25 µM (inactive) | > 25 | > 25 | 8.86 µM | 7.52 | 10.2 |
| CCC(C)Nc1nc(-c2cccc(OC)c2O)nc2ccccc12 (stereo not given) | > 25 µM (inactive) | > 25 | > 25 | > 25 µM (inactive) | > 25 | > 25 |
| Oc1cccc2cc(-c3ccncc3)cnc12 | > 25 µM (inactive) | > 25 | > 25 | > 25 µM (inactive) | > 25 | > 25 |
| CCOc1ccc(NC(=O)CN(C)C(=O)c2cc(-c3ccc(OC)cc3)nc3ccccc23)cc1OCC | > 25 µM (inactive) | > 25 | > 25 | 10.1 µM | 9.04 | 11.1 |
| Cc1ccc2c(c1)-c1c(cnn1CC(=O)Nc1ccccc1N1CCN(C)CC1)CO2 | > 25 µM (inactive) | > 25 | > 25 | – | 24.2 | > 25 |
| N/C(=N\c1nc2ccccc2o1)NC(=O)c1ccc(F)cc1 | > 25 µM (inactive) | > 25 | > 25 | > 25 µM (inactive) | > 25 | > 25 |
| COc1ccc(CN(C)C[C@@H]2OCCCC[C@H](C)Oc3ccc(NC(=O)Nc4ccc(F)cc4)cc3C(=O)N([C@H](C)CO)C[C@H]2C)cc1 | > 25 µM (inactive) | > 25 | > 25 | – | 21.8 | > 25 |
| Cc1cc(C)c2nc(NC(=O)c3ccc([N+](=O)[O-])o3)sc2c1 | > 25 µM (inactive) | > 25 | > 25 | > 25 µM (inactive) | > 25 | > 25 |
| COc1ccc(-c2ccc3[nH]c4c(c3c2)CCN2C[C@@H]([C@H](C)OC(=O)Nc3cc(Cl)cc(Cl)c3)[C@@H](N(C)C(=O)Nc3cc(Cl)cc(Cl)c3)C[C@@H]42)cc1 | > 25 µM (inactive) | > 25 | > 25 | 11.6 µM | 9.42 | 13.9 |

| SMILES | IC50 cytotoxicity (DAPI nuclear signal decrease) (DAPI; mean of runs) | IC50 cytotoxicity (DAPI nuclear signal decrease) (DAPI; run 1) [µM] | IC50 cytotoxicity (DAPI nuclear signal decrease) (DAPI; run 2) [µM] | IC50 (TAG; mean of runs) | IC50 (TAG; run 1) [µM] | IC50 (TAG; run 2) [µM] |
| --- | --- | --- | --- | --- | --- | --- |
| COc1ccccc1-c1cc(NC=O)c2ncc(-c3cccc(C(=O)N(C)C)c3)n2c1 | > 25 µM (inactive) | > 25 | > 25 | 15.3 µM (inactive) | 17.5 | 13.1 |
| COc1ccc(C[C@H]2CN3C(=NC[C@@H]3Cc3ccc(O)cc3)N2CCNC(=O)c2ccc(C)c(Br)c2)cc1 | – | 24 | > 25 | > 25 µM (inactive) | > 25 | > 25 |
| CCCOC(=O)c1ccc(NC(=O)CCOc2ccccc2)cc1 | > 25 µM (inactive) | > 25 | > 25 | 21.5 µM (inactive) | 18.2 | 24.7 |
| CC(C)(C)NC(=O)C(c1ccc(-c2ccccc2)cc1)N(C[C@H]1CC[C@@H]([C@@H]2CC[C@H](CO)O2)O1)C(=O)c1ccc2ccccc2c1 (stereo not given in full) | > 25 µM (inactive) | > 25 | > 25 | 5.56 µM | 4.96 | 6.16 |
| CCN(CC(=O)Nc1ccc(C(=O)Nc2ccc(OC)cc2)cc1)Cc1nc2ccccc2c(=O)[nH]1 | > 25 µM (inactive) | > 25 | > 25 | > 25 µM (inactive) | > 25 | > 25 |
| O=C(Nc1ccc(-c2csc(Nc3cccc(C(F)(F)F)c3)n2)cc1)c1ccccc1 | > 25 µM (inactive) | > 25 | > 25 | – | 22.3 | > 25 |
| Cc1ccc(-c2nc(NC(=O)c3cc(C(C)(C)C)nn3C)sc2C)cc1Cl | 21.1 µM (inactive) | 20.2 | 22 | 5.56 µM | 6.38 | 4.74 |
| COc1ccc2cc3cc(C(=O)NCCc4ccc(OC)c(OC)c4)oc3nc2c1 | > 25 µM (inactive) | > 25 | > 25 | > 25 µM (inactive) | > 25 | > 25 |
| CCCCCC(=O)Nc1nc(C)c(-c2csc(Nc3cc(OC)ccc3OC)n2)s1 | > 25 µM (inactive) | > 25 | > 25 | 14.6 µM | 13.3 | 15.8 |
| COc1ccccc1-c1cc(C(F)(F)F)nc(S(=O)(=O)CCCC(=O)NC(C)C)n1 | 18.4 µM (inactive) | 19.9 | 17 | 11.2 µM | 13.5 | 8.8 |
| CC(C)(C)OC(=O)N(CCc1ccccc1)Cc1ccccc1OCc1cccc(NC(=O)/C=C/c2ccccc2)c1 | > 25 µM (inactive) | > 25 | > 25 | 15 µM | 21 | 8.93 |
| CN(C)CCCNC(=O)C[C@H]1C[C@H](C(=O)N2CCCCC2)[C@@]2(CCc3ccccc3)c3[nH]c4cc(-c5ccco5)ccc4c3CCN2C1=O | > 25 µM (inactive) | > 25 | > 25 | – | > 25 | 14.5 |
| O=c1cc(-c2ccccc2)[nH]c2ccc(F)cc12 | > 25 µM (inactive) | > 25 | > 25 | > 25 µM (inactive) | > 25 | > 25 |
| C[C@]12c3[nH]c4ccccc4c3CCN1C(=O)C(CC(=O)NCC13CC4CC(CC(C4)C1)C3)C[C@@H]2C(=O)N1CCCCC1 (stereo not given in full) | > 25 µM (inactive) | > 25 | > 25 | 14.6 µM | 14.8 | 14.4 |
| CN(C)CCNC=C(C(=O)Nc1ccc(Cl)cc1Cl)C(=O)Nc1ccc(Cl)cc1Cl | – | 20.8 | > 25 | 8.69 µM | 8.01 | 9.36 |
| Cc1ccc(-c2nn3c(C)nnc3c3ccccc23)cc1S(=O)(=O)NC(C)c1ccccc1 (stereo not given) | > 25 µM (inactive) | > 25 | > 25 | 19.7 µM (inactive) | 18.7 | 20.6 |

— PubChem BioAssay AID651630 (Sanford-Burnham Center for Chemical Genomics, 2012)
